Test results from US9951077B2, “Aminopyridazinone compounds as protein kinase inhibitors” (ETERNITY BIOSCIENCE INC., priority 2014, dated 2018).

Biological target: Btk (Homo sapiens (Human), UniProt Q06187)
Experiment: Btk kinase assay (ADP-Glo)
Format: biochemical
Conditions: ATP 1.2 μM, 60 minutes, room temperature; read-out: BTK enzyme IC50
Outline: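 Recombinant human Btk (2 ng/μl) with poly GT peptide (0.3 μM), ATP (1.2 μM), MnCl2 (1.4 mM) and DTT (40 nM), 60 min at room temperature (22±1° C.). ADP formed was read by ADP-Glo luminescence after ATP depletion. IC50 from log concentration versus percent inhibition relative to DMSO vehicle.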

Sequence of Btk (Q06187 whole entry): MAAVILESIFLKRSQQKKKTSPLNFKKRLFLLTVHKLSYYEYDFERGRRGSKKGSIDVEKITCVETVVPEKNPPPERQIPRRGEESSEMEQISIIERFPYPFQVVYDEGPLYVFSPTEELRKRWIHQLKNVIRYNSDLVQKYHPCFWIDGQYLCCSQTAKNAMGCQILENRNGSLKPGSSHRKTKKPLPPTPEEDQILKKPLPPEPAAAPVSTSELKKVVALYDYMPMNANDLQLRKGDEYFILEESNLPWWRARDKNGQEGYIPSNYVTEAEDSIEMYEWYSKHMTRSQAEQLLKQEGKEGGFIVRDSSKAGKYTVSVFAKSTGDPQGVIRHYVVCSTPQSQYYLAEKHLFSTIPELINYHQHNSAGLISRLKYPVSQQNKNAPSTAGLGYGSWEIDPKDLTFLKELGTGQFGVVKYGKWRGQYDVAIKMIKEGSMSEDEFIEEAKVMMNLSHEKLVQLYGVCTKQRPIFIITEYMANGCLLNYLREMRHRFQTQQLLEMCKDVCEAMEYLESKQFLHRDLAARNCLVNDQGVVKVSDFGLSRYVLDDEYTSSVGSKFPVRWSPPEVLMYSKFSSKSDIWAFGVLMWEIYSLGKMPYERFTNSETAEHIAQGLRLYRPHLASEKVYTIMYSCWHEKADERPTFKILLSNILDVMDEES

IC50 | SMILES
10 to 1000 nM | C=CC(=O)Nc1cccc(-n2cc(-c3ccc(Oc4ccccc4F)cc3)c3c(N)n[nH]c(=O)c32)c1 [Example 91, N-(3-(4-amino-3-(4-(2-fluorophenoxy)phenyl)-7-oxo-6,7-dihydro-1H-pyrrolo[2,3-d]pyridazin-1-yl)phenyl)acrylamide]
10 to 1000 nM | CC#CC(=O)N1CC[C@@H](n2cc(-c3ccc(Oc4ccccc4F)cc3)c3c(N)n[nH]c(=O)c32)C1 [Example 95, (R)-4-amino-1-(1-(but-2-ynoyl)pyrrolidin-3-yl)-3-(4-(2-fluorophenoxy)phenyl)-1H-pyrrolo[2,3-d]pyridazin-7(6H)-one]
10 to 1000 nM | CC#CC(=O)N1CC[C@@H](n2cc(-c3ccc(Oc4ccccc4Cl)cc3)c3c(N)n[nH]c(=O)c32)C1 [Example 96, (R)-4-amino-1-(1-(but-2-ynoyl)pyrrolidin-3-yl)-3-(4-(2-chlorophenoxy)phenyl)-1H-pyrrolo[2,3-d]pyridazin-7(6H)-one]
10 to 1000 nM | CC#CC(=O)N1C[C@H](OC)[C@@H](n2cc(-c3ccc(Oc4ccccc4F)cc3)c3c(N)n[nH]c(=O)c32)C1 [Example 98, 4-amino-1-((3S,4S)-1-(but-2-ynoyl)-4-methoxypyrrolidin-3-yl)-3-(4-(2-fluorophenoxy)phenyl)-1H-pyrrolo[2,3-d]pyridazin-7(6H)-one]
≤ 10 nM | CN(C)CC#CC(=O)N1CC[C@@H](n2cc(-c3ccc(Oc4ccccc4F)cc3)c3c(N)n[nH]c(=O)c32)C1 [Example 99, (R)-4-amino-1-(1-(4-(dimethylamino)but-2-ynoyl)pyrrolidin-3-yl)-3-(4-(2-fluorophenoxy)phenyl)-1H-pyrrolo[2,3-d]pyridazin-7(6H)-one]
10 to 1000 nM | CC#CC(=O)NC1CCC(n2cc(-c3ccc(Oc4ccccc4F)cc3)c3c(N)n[nH]c(=O)c32)C1 (stereo not shown) [Example 100, N-(3-(4-amino-3-(4-(2-fluorophenoxy)phenyl)-7-oxo-6,7-dihydro-1H-pyrrolo[2,3-d]pyridazin-1-yl)cyclopentyl)but-2-ynamide]
1000 to 100000 nM | CC#CC(=O)N1CC[C@H](n2cc(-c3ccc(Oc4ccccc4F)cc3)c3c(N)n[nH]c(=O)c32)C1 [Example 101, (S)-4-amino-1-(1-(but-2-ynoyl)pyrrolidin-3-yl)-3-(4-(2-fluorophenoxy)phenyl)-1H-pyrrolo[2,3-d]pyridazin-7(6H)-one]
10 to 1000 nM | C=CC(=O)N[C@H]1CC[C@@H](n2cc(-c3ccc(Oc4ccccc4F)cc3)c3c(N)n[nH]c(=O)c32)CC1 [Example 104, N-((1s,4s)-4-(4-amino-3-(4-(2-fluorophenoxy)phenyl)-7-oxo-6,7-dihydro-1H-pyrrolo[2,3-d]pyridazin-1-yl)cyclohexyl)acrylamide]
10 to 1000 nM | C=CC(=O)N[C@H]1CC[C@H](n2cc(-c3ccc(Oc4ccccc4F)cc3)c3c(N)n[nH]c(=O)c32)CC1 [Example 105, N-((1r,4r)-4-(4-amino-3-(4-(2-fluorophenoxy)phenyl)-7-oxo-6,7-dihydro-1H-pyrrolo[2,3-d]pyridazin-1-yl)cyclohexyl)acrylamide]
10 to 1000 nM | C=CC(=O)N1CC[C@@H](n2cc(-c3ccc(Oc4ccccc4F)cc3)c3c(N)n[nH]c(=O)c32)C1 [Example 106, (R)-1-(1-acryloylpyrrolidin-3-yl)-4-amino-3-(4-(2-fluorophenoxy)phenyl)-1H-pyrrolo[2,3-d]pyridazin-7(6H)-one]
≤ 10 nM | N#CN1CCCC(n2cc(-c3ccc(Oc4ccccc4F)cc3)c3c(N)n[nH]c(=O)c32)C1 (stereo not shown) [Example 108, 3-(4-amino-3-(4-(2-fluorophenoxy)phenyl)-7-oxo-6,7-dihydro-1H-pyrrolo[2,3-d]pyridazin-1-yl)piperidine-1-carbonitrile]
10 to 1000 nM | CCC(=O)N1CCC[C@@H](n2cc(-c3ccc(Oc4c(F)cccc4F)cc3)c3c(N)n[nH]c(=O)c32)C1 [Example 115, (R)-4-amino-3-(4-(2,6-difluorophenoxy)phenyl)-1-(1-propionylpiperidin-3-yl)-1H-pyrrolo[2,3-d]pyridazin-7(6H)-one]

Second part, the compound before the results:

SMILES | IC50
C=CC(=O)Nc1cccc(-n2cc(-c3ccc(OC)c(Cl)c3)c3c(N)n[nH]c(=O)c32)c1 [Example 89, N-(3-(4-amino-3-(3-chloro-4-methoxyphenyl)-7-oxo-6,7-dihydro-1H-pyrrolo[2,3-d]pyridazin-1-yl)phenyl)acrylamide] | 10 to 1000 nM
C=CC(=O)Nc1ccc(-n2cc(-c3ccc(Oc4ccccc4)cc3)c3c(N)n[nH]c(=O)c32)cc1 [Example 90, N-(4-(4-amino-7-oxo-3-(4-phenoxyphenyl)-6,7-dihydro-1H-pyrrolo[2,3-d]pyridazin-1-yl)phenyl)acrylamide] | 10 to 1000 nM
CN(C)C/C=C/C(=O)Nc1cccc(-n2cc(-c3ccc(Oc4ccccc4F)cc3)c3c(N)n[nH]c(=O)c32)c1 [Example 92, (E)-N-[3-[4-amino-3-[4-(2-fluorophenoxy)phenyl]-7-oxo-6H-pyrrolo[2,3-d]pyridazin-1-yl]phenyl]-4-(dimethylamino)but-2-enamide] | 10 to 1000 nM
CC#CC(=O)N1CC[C@@H](n2cc(-c3ccc(Oc4c(F)cccc4Cl)cc3)c3c(N)n[nH]c(=O)c32)C1 [Example 94, (R)-4-amino-1-(1-(but-2-ynoyl)pyrrolidin-3-yl)-3-(4-(2-chloro-6-fluorophenoxy)phenyl)-1H-pyrrolo[2,3-d]pyridazin-7(6H)-one] | 10 to 1000 nM
CC#CC(=O)N1CC[C@@H](n2cc(-c3ccc(Oc4ccccc4)cc3)c3c(N)n[nH]c(=O)c32)C1 [Example 97, (R)-4-amino-1-(1-(but-2-ynoyl)pyrrolidin-3-yl)-3-(4-phenoxyphenyl)-1H-pyrrolo[2,3-d]pyridazin-7(6H)-one] | 10 to 1000 nM
CC#CC(=O)N[C@H]1CC[C@@H](n2cc(-c3ccc(Oc4ccccc4F)cc3)c3c(N)n[nH]c(=O)c32)CC1 [Example 102, N-((1s,4s)-4-(4-amino-3-(4-(2-fluorophenoxy)phenyl)-7-oxo-6,7-dihydro-1H-pyrrolo[2,3-d]pyridazin-1-yl)cyclohexyl)but-2-ynamide] | 10 to 1000 nM
N#CN1CC[C@@H](n2cc(-c3ccc(Oc4ccccc4)cc3)c3c(N)n[nH]c(=O)c32)C1 [Example 107, (R)-3-(4-amino-7-oxo-3-(4-phenoxyphenyl)-6,7-dihydro-1H-pyrrolo[2,3-d]pyridazin-1-yl)pyrrolidine-1-carbonitrile] | ≤ 10 nM
C=CC(=O)N1CCC[C@@H](n2nc(-c3ccc(Oc4ccccc4F)cc3)c3c(N)n[nH]c(=O)c32)C1 [Example 109, (R)-1-(1-acryloylpiperidin-3-yl)-4-amino-3-(4-(2-fluorophenoxy)phenyl)-1H-pyrazolo[3,4-d]pyridazin-7(6H)-one] | 10 to 1000 nM
C=CC(=O)N1CCC[C@@H](n2nc(-c3ccc(Oc4ccccc4)cc3)c3c(N)n[nH]c(=O)c32)C1 [Example 110, (R)-1-(1-acryloylpiperidin-3-yl)-4-amino-3-(4-phenoxyphenyl)-1H-pyrazolo[3,4-d]pyridazin-7(6H)-one] | 10 to 1000 nM
C=CC(=O)N1CCC[C@H](n2cc(-c3ccc(Oc4c(F)cccc4F)cc3)c3c(N)n[nH]c(=O)c32)C1 [Example 114, (S)-1-(1-acryloylpiperidin-3-yl)-4-amino-3-(4-(2,6-difluorophenoxy)phenyl)-1H-pyrrolo[2,3-d]pyridazin-7(6H)-one] | 10 to 1000 nM
